Assay results taken from paper PMC9168903, “Crystal Structures of Arabidopsis thaliana GDP-D-Mannose Pyrophosphorylase VITAMIN C DEFECTIVE 1” (Frontiers in Plant Science, 2022).
Values joined by “and” are separate entries in the source; they are usually repeats but may differ in a detail not shown here. Equal entries are not always repeated.

Columns and labels:
[1] = target: T1, VTC1ΔC (Arabidopsis thaliana, UniProt O22287); test: GMPase assay, malachite green phosphate release after pyrophosphatase; type: biochemical; conditions: 0.2 mM Man-1-P, 0.2 mM GTP, 1 mM MgCl2, 1 mM DTT, 50 mM Tris-HCl pH 7.5, 37 °C, 0.2 μM enzyme
T1 construct: gene CYT1; truncation lacking the C-terminal 139 residues (LβH domain region removed); catalytic domain; recombinant, purified as full-length VTC1

[2] = target: T2, VTC1 (Arabidopsis thaliana, UniProt O22287); test: X-ray crystal structure, […] Å; type: binding
T2 construct: gene CYT1; full-length recombinant, 41 kDa; dimer, tetramer and aggregate in SEC
T2 sequence (O22287 1-361): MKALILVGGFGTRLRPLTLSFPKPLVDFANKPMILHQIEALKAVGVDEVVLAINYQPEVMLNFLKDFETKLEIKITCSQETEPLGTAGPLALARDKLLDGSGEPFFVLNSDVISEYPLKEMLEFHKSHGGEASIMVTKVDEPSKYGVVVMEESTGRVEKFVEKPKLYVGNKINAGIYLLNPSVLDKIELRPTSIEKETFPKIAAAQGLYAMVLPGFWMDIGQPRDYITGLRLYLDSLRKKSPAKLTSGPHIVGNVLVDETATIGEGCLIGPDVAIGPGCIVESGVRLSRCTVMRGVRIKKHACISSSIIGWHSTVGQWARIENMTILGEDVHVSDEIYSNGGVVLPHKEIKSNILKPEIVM

[3] = target: the molecule itself; test: crystal structure; product-bound VTC1 (GDP-Man, PPi, citrate), 3.0 Å, space group R32, two dimers in the asymmetric unit, threefold symmetry
[4] = target: the molecule itself; test: SEC; HiLoad 16/60 Superdex 200 column; purified recombinant VTC1; three peaks compared with protein standards

## O=P(O)(O)O[C@H]1O[C@H](CO)[C@@H](O)[C@H](O)[C@@H]1O [D-mannose-1-phosphate]
[1]
  GMPase assay, malachite green phosphate release after pyrophosphatase: VTC1ΔC retained, but only ca. one third of the GMPase activity

## Nc1nc2c(ncn2[C@@H]2O[C@H](COP(=O)(O)OP(=O)(O)O[C@H]3O[C@H](CO)[C@@H](O)[C@H](O)[C@@H]3O)[C@@H](O)[C@H]2O)c(=O)[nH]1 [GDP-D-mannose]
[2]; active site of catalytic domain, bound in middle protomer, citrate also bound
  X-ray crystal structure, 3.0 Å: The product GDP-Man binds at the edge of the central β-sheet (Figure 4C).

## Nc1nc2c(ncn2[C@@H]2O[C@H](COP(=O)(O)OP(=O)(O)OP(=O)(O)O)[C@@H](O)[C@H]2O)c(=O)[nH]1 [GTP]
[1]
  GMPase assay, malachite green phosphate release after pyrophosphatase: VTC1ΔC retained, but only ca. one third of the GMPase activity

## O=P(O)(O)OP(=O)(O)O [inorganic pyrophosphate]
[2]; catalytic domain, β1–η1 loop, bound in inner and outer protomers, same site as citrate
  X-ray crystal structure, 3.0 Å: the inner and outer protomers each bind a PPi

B1: Arabidopsis thaliana GDP-D-mannose pyrophosphorylase VITAMIN C … 1 (enzyme, UniProt O22287 1-361, looked up)
chain: T2 sequence (O22287 1-361)
notes: VTC1 (GDP-D-mannose pyrophosphorylase), Arabidopsis thaliana, full-length; recombinant protein stated to have a molecular weight of 41 kDa; also called VTC1; GMPase; source: recombinant, purified (SEC on HiLoad 16/60 Superdex 200); production described previously (Zhao and Liu, 2016)
[3]
  stoichiometry N: 12
[4]
  stoichiometry N: 2 and 4
